SMILES strings stand for the structures.

One test concerns the target T1, L3MBTL3 (Homo sapiens, UniProt Q96JM7).
T1 sequence (Q96JM7 225-555 limits assumed): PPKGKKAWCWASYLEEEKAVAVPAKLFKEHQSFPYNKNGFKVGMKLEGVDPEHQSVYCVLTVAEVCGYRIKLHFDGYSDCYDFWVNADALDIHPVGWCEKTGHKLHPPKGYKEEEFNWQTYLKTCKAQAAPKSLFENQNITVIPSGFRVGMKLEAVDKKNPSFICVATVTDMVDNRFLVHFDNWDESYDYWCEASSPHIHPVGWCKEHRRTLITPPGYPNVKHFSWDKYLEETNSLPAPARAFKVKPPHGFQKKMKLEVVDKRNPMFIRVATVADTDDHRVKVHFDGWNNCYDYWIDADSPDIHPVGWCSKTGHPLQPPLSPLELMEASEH
In words: AlphaScreen methylated histone peptide competition assay. It is filed as binding. To be noted: compared with UNC2533; 12 and 13 after incubation time of 30 minutes.
On to `c1cc(N2CCC(N3CCCCC3)CC2)ccc1CCN1CCCC1` [compound 2], for which the “Fold drop in L3MBTL3 activity (AlphaScreen) relative to UNC2533” value is 9 fold. The same measure, in the same setting: then `c1cc(CN2CCCC2)ccc1CCN1CCCC1` [compound 7], with 20 fold. On to `O=C(CCc1ccc(N2CCC(N3CCCC3)CC2)cc1)N1CCCC1` [compound 8], for which the “Fold drop in L3MBTL3 activity (AlphaScreen) relative to UNC2533” value is reported as “more than 30 fold”. Same read-out and setting: then `c1cc(N2CCC(N3CCCC3)CC2)ccc1N1CCC(N2CCCC2)CC1` [compound 10], with “about 5 fold”; and `N#CC1CCN(CCc2ccc(N3CCC(N4CCCC4)CC3)cc2)C1` (stereo not shown) [compound 12], with 5 fold; and `O=C1CCN(CCc2ccc(N3CCC(N4CCCC4)CC3)cc2)C1` [compound 13], with 5 fold.

A further test deals with T1, L3MBTL3. In words: Isothermal titration calorimetry. To be noted: compared with UNC2533. It is filed as binding.
Take `c1cc(N2CCC(N3CCCCC3)CC2)ccc1CCN1CCCC1` [compound 2]: the “Fold loss in L3MBTL3 activity by ITC relative to UNC2533” value is on record as 7 fold.

Source of the values: paper PMC3897169 (MedChemComm, 2013).
